# Test results taken from patent US9315517B2, “Imidazol-piperidinyl derivatives as modulators of kinase activity” (Merck Patent GmbH, priority 2012, dated 2016).
# Assays:
# [1] = biological target: T1, P70S6K (T412E mutant, Millipore) (Homo sapiens, UniProt P23443, T412E); experiment: P70S6K enzyme assay; format: biochemical; conditions: enzyme inhibition; 24 μM ATP, 90 min at 25° C., Caliper mobility shift
# T1 construct: purchased Millipore
# Procedure: (§1) The IC50 values reported for the compounds in the Experimental section were derived from the following protocol for the p70S6K and AKT enzyme assays.
# P70S6K inhibitor compounds were diluted and plated in 96 well plates. A reaction mixture including the following components was then added to the compound plate to initiate the enzyme reaction; P70S6K (3 nM, T412E mutant, Millipore) was mixed with 24 μM ATP in an assay buffer containing 100 mM Hepes (pH 7.5), 5 mM MgCl2, 1 mM DTT, 0.015% Brij and 1 μM of the substrate peptide FITC-AHA-AKRRRLSSLRA-OH (derived from the S6 ribosomal protein sequence, FITC=fluorescein isothiocyanate, AHA=6-aminohexanoic acid). The reaction was incubated for 90 min at 25° C., before the addition of 10 mM EDTA to stop the reaction. The proportion of substrate and product (phosphorylated) peptide was analysed on a Caliper Life Sciences Lab Chip 3000, using a pressure of −1.4 psi, and upstream and downstream voltages of −3000 and −700 respectively. Product peaks were resolved before substrate peaks on the resulting chromatograms.
# His-AKT (Full Length) = biological target: T2, His-AKT (Full Length) (Homo sapiens, UniProt P31749); experiment: AKT enzyme assay; format: biochemical; conditions: enzyme inhibition; 160 uM ATP, 90 min at 25° C., Caliper mobility shift
# T2 construct: 0.1 ng/μl His-AKT (Full Length); His; purchased Invitrogen P2999
# Procedure: as §1
# A TTP Mosquito liquid handling instrument was used to place 125 nl of the appropriate concentration of inhibitor in 100% DMSO (for a dose response curve calculation) into each well of a 384-well plate. To this reaction components were added to a final volume of 12.5 μl: • 0.1 ng/μl His-AKT (Full Length), (Invitrogen, Part # P2999, Lot # 641228C). • 160 uM ATP (Fluke, 02055) • 1 mM DTT (Sigma, D0632) • 1 mM MgCl2 (Sigma, M1028) • 1 μM substrate peptide (sequence FITC-AHA-GRPRTSSFAEG-NH2), synthesized by Tufts Peptide Synthesis service. • 100 mM HEPES pH 7.5 (Calbiochem, 391338) • 0.015% Brij-35 (Sigma, B4184)
# The reaction was incubated for 90 min at 25° C., and then stopped by the addition of 70 μl of Stop buffer (100 mM HEPES pH 7.5, 0.015% Brij-35, 10 mM EDTA (Sigma, E7889)).
# The plate was read on a Caliper LC 3000 in an Off-Chip mobility shift assay format, using the following parameters for a 12-sipper chip: screening pressure −2.3 psi, upstream voltage −500, and downstream voltage −3000. These conditions caused unphosphorylated substrate and phosphorylated product peptide to resolve as separate peaks allowing direct measurement of percentage of conversion of substrate to product. The percent conversion was plotted against concentration of inhibitor to produce a sigmoidal dose response curve, from which an IC50 was calculated.
# T1 sequence (P23443 whole entry T412E): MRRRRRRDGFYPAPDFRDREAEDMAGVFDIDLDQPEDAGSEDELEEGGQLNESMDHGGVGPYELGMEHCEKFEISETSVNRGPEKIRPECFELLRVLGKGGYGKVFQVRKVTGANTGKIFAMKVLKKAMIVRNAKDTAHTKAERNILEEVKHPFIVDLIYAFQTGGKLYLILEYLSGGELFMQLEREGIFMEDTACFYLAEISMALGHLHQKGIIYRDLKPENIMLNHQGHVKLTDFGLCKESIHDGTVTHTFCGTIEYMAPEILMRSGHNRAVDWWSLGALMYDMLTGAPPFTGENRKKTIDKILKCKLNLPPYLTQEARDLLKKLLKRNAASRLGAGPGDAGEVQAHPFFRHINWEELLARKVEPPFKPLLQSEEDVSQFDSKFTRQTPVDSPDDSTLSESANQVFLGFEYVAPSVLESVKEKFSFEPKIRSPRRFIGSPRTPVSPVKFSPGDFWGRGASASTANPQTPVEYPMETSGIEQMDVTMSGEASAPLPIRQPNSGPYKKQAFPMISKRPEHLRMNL
# T2 sequence (P31749 whole entry): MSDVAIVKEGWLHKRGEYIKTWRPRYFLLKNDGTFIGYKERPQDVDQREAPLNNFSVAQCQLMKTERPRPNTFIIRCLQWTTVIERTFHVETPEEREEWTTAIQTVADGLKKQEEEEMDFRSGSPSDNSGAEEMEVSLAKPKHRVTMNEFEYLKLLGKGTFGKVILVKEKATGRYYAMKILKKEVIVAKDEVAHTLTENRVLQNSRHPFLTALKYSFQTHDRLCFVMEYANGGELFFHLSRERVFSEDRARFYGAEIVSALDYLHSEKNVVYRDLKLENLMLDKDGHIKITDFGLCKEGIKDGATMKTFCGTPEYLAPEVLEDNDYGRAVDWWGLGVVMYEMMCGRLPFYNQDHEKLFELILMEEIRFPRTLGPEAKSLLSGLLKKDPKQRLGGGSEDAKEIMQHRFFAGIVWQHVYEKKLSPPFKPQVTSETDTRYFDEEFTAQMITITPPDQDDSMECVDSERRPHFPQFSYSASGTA
SMILES,IC50 [1] [nM],IC50 (His-AKT (Full Length)) [nM]
"O=C1CNc2ncnc(N3CCC(c4nc(-c5ccccc5)cn4CCN4CCCC4)CC3)c2N1 [Compound A45, 4-{4-[4-Phenyl-1-(2-pyrrolidin-1-yl-ethyl)-1H-imidazol-2-yl]-piperidin-1-yl}-7,8-dihydro-5H-pteridin-6-one]",101 to 500,501 to 1000
"CN(C)CCn1cc(-c2ccc(F)c(F)c2)nc1C1CCN(c2ncnc3c2NC(=O)CN3)CC1 [Compound A46, 4-{4-[4-(3,4-DifluoroPhenyl)-1-(2-dimethylamin-1-yl-ethyl)-1H-imidazol-2-yl]-piperidin-1-yl}-7,8-dihydro-5H-pteridin-6-one]",26 to 100,101 to 500
"CN(C)CCn1cc(-c2cccc(Cl)c2)nc1C1CCN(c2ncnc3c2NC(=O)CN3)CC1 [Compound A47, 4-{4-[4-(3-ChloroPhenyl)-1-(2-dimethylamin-1-yl-ethyl)-1H-imidazol-2-yl]-piperidin-1-yl}-7,8-dihydro-5H-pteridin-6-one]",101 to 500,101 to 500
"CN(C)CCn1cc(-c2cccnc2)nc1C1CCN(c2ncnc3c2NC(=O)CN3)CC1 [Compound A48, 4-{4-[4-(Pyridin-3-yl)-1-(2-dimethylamin-1-yl-ethyl)-1H-imidazol-2-yl]-piperidin-1-yl}-7,8-dihydro-5H-pteridin-6-one]",> 1000,> 1000
"Cc1ccc(-c2cn(CCN(C)C)c(C3CCN(c4ncnc5c4NC(=O)CN5)CC3)n2)cc1 [Compound A49, 4-{4-[4-(4-MethylPhenyl)-1-(2-dimethylamin-1-yl-ethyl)-1H-imidazol-2-yl]-piperidin-1-yl}-7,8-dihydro-5H-pteridin-6-one]",101 to 500,> 1000
"CN(C)CCn1cc(-c2ccc(F)cc2)nc1C1CCN(c2ncnc3c2NC(=O)CN3)CC1 [Compound A50, 4-{4-[4-(4-FluoroPhenyl)-1-(2-dimethylamin-1-yl-ethyl)-1H-imidazol-2-yl]-piperidin-1-yl}-7,8-dihydro-5H-pteridin-6-one]",101 to 500,501 to 1000
"COc1cccc(-c2cn(CCN(C)C)c(C3CCN(c4ncnc5c4NC(=O)CN5)CC3)n2)c1 [Compound A51, 4-{4-[4-(3-Methoxy-phenyl)-1-(2-dimethylamin-1-yl-ethyl)-1H-imidazol-2-yl]-piperidin-1-yl}-7,8-dihydro-5H-pteridin-6-one]",101 to 500,501 to 1000
"COc1ccc(-c2cn(CCN(C)C)c(C3CCN(c4ncnc5c4NC(=O)CN5)CC3)n2)cc1 [Compound A52, 4-{4-[4-(4-Methoxyl-henyl)-1-(2-dimethylamin-1-yl-ethyl)-1H-imidazol-2-yl]-piperidin-1-yl}-7,8-dihydro-5H-pteridin-6-one]",> 1000,> 1000
"CN(C)CCn1cc(-c2ccccc2)nc1C1CCN(c2ncnc3c2NC(=O)CN3)CC1 [Compound A53, 4-{4-[4-(Phenyl)-1-(2-dimethylamin-1-yl-ethyl)-1H-imidazol-2-yl]-piperidin-1-yl}-7,8-dihydro-5H-pteridin-6-one]",> 1000,> 1000
"Cc1cccc(-c2cn(CCN(C)C)c(C3CCN(c4ncnc5c4NC(=O)CN5)CC3)n2)c1 [Compound A54, 4-{4-[4-(3-MethylPhenyl)-1-(2-dimethylamin-1-yl-ethyl)-1H-imidazol-2-yl]-piperidin-1-yl}-7,8-dihydro-5H-pteridin-6-one]",26 to 100,101 to 500
"CN(C)CCn1cc(C(F)(F)F)nc1C1CCN(c2ncnc3c2NC(=O)CN3)CC1 [Compound A55, 4-{4-[4-(4-trifouromethyl)-1-(2-dimethylamino-1-yl-ethyl)-1H-imidazol-2-yl]-piperidin-1-yl}-7,8-dihydro-5H-pteridin-6-one]",> 1000,> 1000
"O=C1CNc2ncnc(N3CCC(c4nc(-c5ccc(F)c(F)c5)cn4CCN4CCCC4)CC3)c2N1 [Compound A56, 4-{4-[4-(3,4-DifluoroPhenyl)-1-(2-pyrrolidin-1-yl-ethyl)-1H-imidazol-2-yl]-piperidin-1-yl}-7,8-dihydro-5H-pteridin-6-one]",26 to 100,< 25
"O=C1CNc2ncnc(N3CCC(c4nc(-c5cccc(Cl)c5)cn4CCN4CCCC4)CC3)c2N1 [Compound A57, 4-{4-[4-(3-ChloroPhenyl)-1-(2-pyrrolidin-1-yl-ethyl)-1H-imidazol-2-yl]-piperidin-1-yl}-7,8-dihydro-5H-pteridin-6-one]",26 to 100,26 to 100
"Cc1ccc(-c2cn(CCN3CCCC3)c(C3CCN(c4ncnc5c4NC(=O)CN5)CC3)n2)cc1 [Compound A58, 4-{4-[4-(4-MethylPhenyl)-1-(2-pyrrolidin-1-yl-ethyl)-1H-imidazol-2-yl]-piperidin-1-yl}-7,8-dihydro-5H-pteridin-6-one]",> 1000,> 1000
"O=C1CNc2ncnc(N3CCC(c4nc(-c5ccc(F)cc5)cn4CCN4CCCC4)CC3)c2N1 [Compound A59, 4-{4-[4-(4-FluoroPhenyl)-1-(2-pyrrolidin-1-yl-ethyl)-1H-imidazol-2-yl]-piperidin-1-yl}-7,8-dihydro-5H-pteridin-6-one]",26 to 100,101 to 500
"COc1cccc(-c2cn(CCN3CCCC3)c(C3CCN(c4ncnc5c4NC(=O)CN5)CC3)n2)c1 [Compound A60, 4-{4-[4-(3-MethoxyPhenyl)-1-(2-pyrrolidin-1-yl-ethyl)-1H-imidazol-2-yl]-piperidin-1-yl}-7,8-dihydro-5H-pteridin-6-one]",101 to 500,101 to 500
"COc1ccc(-c2cn(CCN3CCCC3)c(C3CCN(c4ncnc5c4NC(=O)CN5)CC3)n2)cc1 [Compound A61, 4-{4-[4-(4-MethoxyPhenyl)-1-(2-pyrrolidin-1-yl-ethyl)-1H-imidazol-2-yl]-piperidin-1-yl}-7,8-dihydro-5H-pteridin-6-one]",> 1000,501 to 1000
"Cc1cccc(-c2cn(CCN3CCCC3)c(C3CCN(c4ncnc5c4NC(=O)CN5)CC3)n2)c1 [Compound A62, 4-{4-[4-(3-MethylPhenyl)-1-(2-pyrrolidin-1-yl-ethyl)-1H-imidazol-2-yl]-piperidin-1-yl}-7,8-dihydro-5H-pteridin-6-one]",26 to 100,26 to 100
"O=C1CNc2ncnc(N3CCC(c4nc(C(F)(F)F)cn4CCN4CCCC4)CC3)c2N1 [Compound A63, 4-{4-[trifluoromethyl-1-(2-pyrrolidin-1-yl-ethyl)-1H-imidazol-2-yl]-piperidin-1-yl}-7,8-dihydro-5H-ptericlin-6-one]",> 1000,> 1000
